Reference: patent publication US20230024096A1, “BIFUNCTIONAL COMPOUNDS FOR THE TREATMENT OF CANCER” (Hoffmann-La Roche Inc., priority 2019, published 2023)

Biological target: T1, SMARCA2 (Homo sapiens, UniProt P51531)
T1 construct: endogenous in cells; host or cells: HT1080 (CRISPR HiBiT knock-in clone, generated in house)
Experiment: SMARCA2 HiBiT degradation assay (cellular)
Format: cell-based
Details: table head names A549; for DC50: 6 h incubation, HiBiT-tagged SMARCA2, luminescence read-out, read-out: HiBit A549 SMARCA2 IP (nM) 6 h; for Emax: A549, 6 h incubation, Emax = amount of residual protein remaining in the cell following compound treatment

T1 sequence (P51531 whole entry): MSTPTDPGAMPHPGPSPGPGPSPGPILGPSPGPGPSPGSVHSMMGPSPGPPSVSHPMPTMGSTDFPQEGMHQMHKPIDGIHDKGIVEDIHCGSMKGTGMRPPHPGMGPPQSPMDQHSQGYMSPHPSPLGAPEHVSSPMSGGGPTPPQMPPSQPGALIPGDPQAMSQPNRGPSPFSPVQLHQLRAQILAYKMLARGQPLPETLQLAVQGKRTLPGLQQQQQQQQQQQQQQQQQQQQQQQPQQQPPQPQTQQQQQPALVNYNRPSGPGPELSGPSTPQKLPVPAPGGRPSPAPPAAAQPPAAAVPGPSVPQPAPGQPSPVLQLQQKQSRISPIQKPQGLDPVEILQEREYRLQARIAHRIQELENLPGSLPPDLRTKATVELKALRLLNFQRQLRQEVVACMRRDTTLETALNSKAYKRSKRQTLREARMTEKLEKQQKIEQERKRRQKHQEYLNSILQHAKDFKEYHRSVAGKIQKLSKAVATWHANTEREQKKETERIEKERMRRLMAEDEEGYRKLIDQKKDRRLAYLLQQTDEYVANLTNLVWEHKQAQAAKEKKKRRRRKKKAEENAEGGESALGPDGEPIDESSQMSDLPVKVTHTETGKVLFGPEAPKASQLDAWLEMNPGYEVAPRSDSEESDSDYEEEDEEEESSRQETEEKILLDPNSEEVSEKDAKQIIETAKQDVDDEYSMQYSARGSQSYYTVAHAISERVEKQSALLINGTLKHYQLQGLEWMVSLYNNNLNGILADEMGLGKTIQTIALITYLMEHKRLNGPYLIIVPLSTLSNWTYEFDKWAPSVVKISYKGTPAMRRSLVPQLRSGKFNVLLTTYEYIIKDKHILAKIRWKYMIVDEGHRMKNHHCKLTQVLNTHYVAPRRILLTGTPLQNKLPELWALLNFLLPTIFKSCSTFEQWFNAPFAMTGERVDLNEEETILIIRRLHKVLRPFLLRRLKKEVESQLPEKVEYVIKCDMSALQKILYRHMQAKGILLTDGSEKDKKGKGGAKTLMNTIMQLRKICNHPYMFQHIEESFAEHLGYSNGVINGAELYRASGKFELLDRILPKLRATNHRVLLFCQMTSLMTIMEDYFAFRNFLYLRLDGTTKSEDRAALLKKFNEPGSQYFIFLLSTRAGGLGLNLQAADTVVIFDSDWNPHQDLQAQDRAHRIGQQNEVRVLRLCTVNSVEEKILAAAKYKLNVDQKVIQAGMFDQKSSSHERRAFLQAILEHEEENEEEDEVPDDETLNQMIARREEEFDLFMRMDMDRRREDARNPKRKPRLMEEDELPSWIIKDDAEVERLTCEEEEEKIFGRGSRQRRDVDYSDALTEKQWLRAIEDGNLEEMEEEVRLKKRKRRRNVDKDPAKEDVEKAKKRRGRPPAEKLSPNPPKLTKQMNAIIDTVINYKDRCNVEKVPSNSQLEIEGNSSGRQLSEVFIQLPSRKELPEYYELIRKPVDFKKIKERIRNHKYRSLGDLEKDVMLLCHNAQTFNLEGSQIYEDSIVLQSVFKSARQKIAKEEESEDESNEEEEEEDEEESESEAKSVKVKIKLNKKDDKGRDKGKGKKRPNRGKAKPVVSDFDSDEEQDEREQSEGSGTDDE

| Compound | DC50 [nM] | Emax [%] |
| --- | --- | --- |
| Nc1nnc(-c2ccccc2O)cc1OC1CCCN(c2ccc(OCCN3CCN(C(=O)CCCCCCCCCCCCCCn4cc(CNc5cccc6c5C(=O)N(C5CCC(=O)NC5=O)C6=O)nn4)CC3)cc2)C1 (stereo not drawn) [Example 24, 4-[[1-[15-[4-[2-[4-[3-[3-amino-6-(2-hydroxyphenyl)pyridazin-4-yl]oxy-1-piperidyl]phenoxy]ethyl]piperazin-1-yl]-15-oxo-pentadecyl]triazol-4-yl]methylamino]-2-(2,6-dioxo-3-piperidyl)isoindoline-1,3-dione] | 256 | 56 |
| Nc1nnc(-c2ccccc2O)cc1N1CC2CCC(C1)N2c1cccc(OCCN2CCN(C(=O)CCCNC(=O)COc3cccc4c3C(=O)N(C3CCC(=O)NC3=O)C4=O)CC2)c1 (racemic) [Example 17, rac-N-[4-[4-[2-[3-[3-[3-amino-6-(2-hydroxyphenyl)pyridazin-4-yl]-3,8-diazabicyclo[3.2.1]octan-8-yl]phenoxy]ethyl]piperazin-1-yl]-4-oxo-butyl]-2-[2-(2,6-dioxo-3-piperidyl)-1,3-dioxo-isoindolin-4-yl]oxy-acetamide] | 1440 | 64 |
| Nc1nnc(-c2ccccc2O)cc1N1CC2CCC(C1)N2c1cccc(CC2CCN(C(=O)CCC3CCN(c4ccc5c(c4)C(=O)N(C4CCC(=O)NC4=O)C5=O)CC3)CC2)c1 (racemic) [Example 59, rac-5-[4-[3-[4-[[3-[3-[3-amino-6-(2-hydroxyphenyl)pyridazin-4-yl]-3,8-diazabicyclo[3.2.1]octan-8-yl]phenyl]methyl]-1-piperidyl]-3-oxo-propyl]-1-piperidyl]-2-(2,6-dioxo-3-piperidyl)isoindoline-1,3-dione] | 129 | 65 |
| Nc1nnc(-c2ccccc2O)cc1N1CC2CCC(C1)N2c1cccc(OCCN2CCN(C(=O)CC3CCN(c4ccc5c(c4)C(=O)N(C4CCC(=O)NC4=O)C5=O)CC3)CC2)c1 (racemic) [Example 33, rac-5-[4-[2-[4-[2-[3-[3-[3-amino-6-(2-hydroxyphenyl)pyridazin-4-yl]-3,8-diazabicyclo[3.2.1]octan-8-yl]phenoxy]ethyl]piperazin-1-yl]-2-oxo-ethyl]-1-piperidyl]-2-(2,6-dioxo-3-piperidyl)isoindoline-1,3-dione] | 15 | 39 |
| Nc1nnc(-c2ccccc2O)cc1N1CC2CCC(C1)N2c1cccc(OCCN2CCN(C(=O)C3CCN(c4ccc5c(c4)C(=O)N(C4CCC(=O)NC4=O)C5=O)CC3)CC2)c1 (racemic) [Example 142, rac-5-[4-[4-[2-[3-[3-[3-amino-6-(2-hydroxyphenyl)pyridazin-4-yl]-3,8-diazabicyclo[3.2.1]octan-8-yl]phenoxy]ethyl]piperazine-1-carbonyl]-1-piperidyl]-2-(2,6-dioxo-3-piperidyl)isoindoline-1,3-dione] | 2 | 14 |
| Nc1nnc(-c2ccccc2O)cc1N1CC2CCC(C1)N2c1cccc(CC2CCN(C(=O)C3CCN(c4ccc5c(c4)C(=O)N(C4CCC(=O)NC4=O)C5=O)CC3)CC2)c1 (racemic) [Example 70, rac-5-[4-[4-[[3-[3-[3-amino-6-(2-hydroxyphenyl)pyridazin-4-yl]-3,8-diazabicyclo[3.2.1]octan-8-yl]phenyl]methyl]piperidine-1-carbonyl]-1-piperidyl]-2-(2,6-dioxo-3-piperidyl)isoindoline-1,3-dione] | 40 | 42 |
| Nc1nnc(-c2ccccc2O)cc1OC1CCCN(c2ccc(OCCN3CCN(C(=O)CCCCCCCCCCCn4cc(CNc5cccc6c5C(=O)N(C5CCC(=O)NC5=O)C6=O)nn4)CC3)cc2)C1 (stereo not drawn) [Example 23, 4-[[1-[12-[4-[2-[4-[3-[3-amino-6-(2-hydroxyphenyl)pyridazin-4-yl]oxy-1-piperidyl]phenoxy]ethyl]piperazin-1-yl]-12-oxo-dodecyl]triazol-4-yl]methylamino]-2-(2,6-dioxo-3-piperidyl)isoindoline-1,3-dione] | 157 | 45 |
| Nc1nnc(-c2ccccc2O)cc1OCC(CNC(=O)C1CCN(c2ccc3c(c2)C(=O)N(C2CCC(=O)NC2=O)C3=O)CC1)c1ccccc1 (racemic) [Example 97, N-[3-[3-amino-6-(2-hydroxyphenyl)pyridazin-4-yl]oxy-2-phenyl-propyl]-1-[2-(2,6-dioxo-3-piperidyl)-1,3-dioxo-isoindolin-5-yl]piperidine-4-carboxamide (racemic mixture of diastereomers)] | 659 | 30 |
| Nc1nnc(-c2ccccc2O)cc1N1CC2CCC(C1)N2c1cccc(CN2CCC(C(=O)N3C[C@@H]4CN(c5ccc6c(c5)C(=O)N(C5CCC(=O)NC5=O)C6=O)C[C@@H]4C3)CC2)c1 (relative stereo) [Example 171, rac-2-(2,6-dioxo-3-piperidyl)-5-[rel-(3aR,6aS)-5-[1-[[3-[3-[3-amino-6-(2-hydroxyphenyl)pyridazin-4-yl]-3,8-diazabicyclo[3.2.1]octan-8-yl]phenyl]methyl]piperidine-4-carbonyl]-1,3,3a,4,6,6a-hexahydropyrrolo[3,4-c]pyrrol-2-yl]isoindoline-1,3-dione] | 66 | 40 |
| Nc1nnc(-c2ccccc2O)cc1N1CC2CCC(C1)N2c1cccc(OCCN2CCN(C(=O)CCCCCNc3cccc4c3C(=O)N(C3CCC(=O)NC3=O)C4=O)CC2)c1 (racemic) [Example 12, rac-4-[[6-[4-[2-[3-[3-[3-amino-6-(2-hydroxyphenyl)pyridazin-4-yl]-3,8-diazabicyclo[3.2.1]octan-8-yl]phenoxy]ethyl]piperazin-1-yl]-6-oxo-hexyl]amino]-2-(2,6-dioxo-3-piperidyl)isoindoline-1,3-dione] | 60 | 55 |
| Nc1nnc(-c2ccccc2O)cc1N1CC2CCC(C1)N2c1cccc(OCCN2CCN(C(=O)N3CCN(c4ccc(OC5CCC(=O)NC5=O)cc4)CC3)CC2)c1 (racemic) [Example 51, rac-3-[4-[4-[4-[2-[3-[3-[3-amino-6-(2-hydroxyphenyl)pyridazin-4-yl]-3,8-diazabicyclo[3.2.1]octan-8-yl]phenoxy]ethyl]piperazine-1-carbonyl]piperazin-1-yl]phenoxy]piperidine-2,6-dione] | 86 | 54 |
| Nc1nnc(-c2ccccc2O)cc1N1CCC(CNC(=O)CC2CCN(c3ccc4c(c3)C(=O)N(C3CCC(=O)NC3=O)C4=O)CC2)(c2ccccc2)CC1 (stereo not drawn) [Example 77, N-((1-(3-amino-6-(2-hydroxyphenyl)pyridazin-4-yl)-4-phenylpiperidin-4-yl)methyl)-2-(1-(2-(2,6-dioxopiperidin-3-yl)-1,3-dioxoisoindolin-5-yl)piperidin-4-yl)acetamide] | 77 | 57 |
| Nc1nnc(-c2ccccc2O)cc1N1CC2CCC(C1)N2c1cccc(OCCN2CCN(C(=O)CCCCCCCCNc3cccc4c3C(=O)N(C3CCC(=O)NC3=O)C4=O)CC2)c1 (stereo not drawn) [Example 6, 4-[[9-[4-[2-[3-[3-[3-amino-6-(2-hydroxyphenyl)pyridazin-4-yl]-3,8-diazabicyclo[3.2.1]octan-8-yl]phenoxy]ethyl]piperazin-1-yl]-9-oxo-nonyl]amino]-2-(2,6-dioxo-3-piperidyl)isoindoline-1,3-dione] | 334 | 58 |
| Nc1nnc(-c2ccccc2O)cc1N1CCC(C(=O)NCC2CCN(C(=O)CCCN3CCC(c4ccc(OC5CCC(=O)NC5=O)cc4)CC3)CC2)(c2ccccc2)CC1 (stereo not drawn) [Example 104, 1-(3-amino-6-(2-hydroxyphenyl)pyridazin-4-yl)-N-((1-(4-(4-(4-((2,6-dioxopiperidin-3-yl)oxy)phenyl)piperidin-1-yl)butanoyl)piperidin-4-yl)methyl)-4-phenylpiperidine-4-carboxamide] | 103 | 33 |
| Nc1nnc(-c2ccccc2O)cc1N1CCN(c2cccc(OCCN3CCN(C(=O)C4CCN(c5ccc6c(c5)C(=O)N(C5CCC(=O)NC5=O)C6=O)CC4)CC3)c2)C2(CC2)C1 (stereo not drawn) [Example 84, 5-(4-(4-(2-(3-(7-(3-amino-6-(2-hydroxyphenyl)pyridazin-4-yl)-4,7-diazaspiro[2.5]octan-4-yl)phenoxy)ethyl)piperazine-1-carbonyl)piperidin-1-yl)-2-(2,6-dioxopiperidin-3-yl)isoindoline-1,3-dione] | 17 | 26 |
| Nc1nnc(-c2ccccc2O)cc1OC1CCCN(c2ccc(N3CCN(C(=O)CCCCCCCC(=O)N4CC[C@H](Nc5cccc6c5C(=O)N(C5CCC(=O)NC5=O)C6=O)C4)CC3)cc2)C1 (mixture of isomers) [Example 45, 2-(2,6-dioxo-3-piperidyl)-4-[[rac-(3S)-1-[9-[4-[4-[3-[3-amino-6-(2-hydroxyphenyl)pyridazin-4-yl]oxy-1-piperidyl]phenyl]piperazin-1-yl]-9-oxo-nonanoyl]pyrrolidin-3-yl]amino]isoindoline-1,3-dione] | 627 | 58 |
| Nc1nnc(-c2ccccc2O)cc1OC1CCCN(c2ccc(N3CCN(CCCCCCCCCn4cc(COc5cccc6c5C(=O)N(C5CCC(=O)NC5=O)C6=O)nn4)CC3)cc2)C1 (stereo not drawn) [Example 65, 4-[[1-[9-[4-[4-[3-[3-amino-6-(2-hydroxyphenyl)pyridazin-4-yl]oxy-1-piperidyl]phenyl]piperazin-1-yl]nonyl]triazol-4-yl]methoxy]-2-(2,6-dioxo-3-piperidyl)isoindoline-1,3-dione] | 115 | 31 |
| Nc1nnc(-c2ccccc2O)cc1N1CC2CCC(C1)N2c1cccc(OCCN2CCN(C(=O)CCC3CCN(c4cccc5c4C(=O)N(C4CCC(=O)NC4=O)C5=O)CC3)CC2)c1 (racemic) [Example 16, rac-4-[4-[3-[4-[2-[3-[3-[3-amino-6-(2-hydroxyphenyl)pyridazin-4-yl]-3,8-diazabicyclo[3.2.1]octan-8-yl]phenoxy]ethyl]piperazin-1-yl]-3-oxo-propyl]-1-piperidyl]-2-(2,6-dioxo-3-piperidyl)isoindoline-1,3-dione] | 46 | 50 |
